For orientation: AC50 means the midpoint of the concentration-response curve, whichever way the signal moves.

For one assay, the target named is PKR R510Q (Homo sapiens, UniProt P30613, R510Q). The experiment in a line: PKR mutant assay (AC50), PKR R510Q. It counts as biochemical. The conditions noted are these: PKR R510Q mutant enzyme; read-out: PK R510Q AC50. In a few lines: (§1)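 Human wild-type PKR or R510Q/K410E mutant (40-400 ng/well) in 50 mM Tris pH 7.5, 100 mM KCl, 5 mM MgCl2, 1 mM DTT, 0.03% BSA with PEP 0.1-0.5 mM, 180 μM NADH and LDH coupling. Compound (11-point 3-fold series from 100 μM final) preincubated 60 min at room temperature. Reaction was started with ADP (0.2-1.65 mM) and NADH depletion was followed at 340 nm to give AC50.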
Sequence of PKR R510Q (P30613 whole entry R510Q): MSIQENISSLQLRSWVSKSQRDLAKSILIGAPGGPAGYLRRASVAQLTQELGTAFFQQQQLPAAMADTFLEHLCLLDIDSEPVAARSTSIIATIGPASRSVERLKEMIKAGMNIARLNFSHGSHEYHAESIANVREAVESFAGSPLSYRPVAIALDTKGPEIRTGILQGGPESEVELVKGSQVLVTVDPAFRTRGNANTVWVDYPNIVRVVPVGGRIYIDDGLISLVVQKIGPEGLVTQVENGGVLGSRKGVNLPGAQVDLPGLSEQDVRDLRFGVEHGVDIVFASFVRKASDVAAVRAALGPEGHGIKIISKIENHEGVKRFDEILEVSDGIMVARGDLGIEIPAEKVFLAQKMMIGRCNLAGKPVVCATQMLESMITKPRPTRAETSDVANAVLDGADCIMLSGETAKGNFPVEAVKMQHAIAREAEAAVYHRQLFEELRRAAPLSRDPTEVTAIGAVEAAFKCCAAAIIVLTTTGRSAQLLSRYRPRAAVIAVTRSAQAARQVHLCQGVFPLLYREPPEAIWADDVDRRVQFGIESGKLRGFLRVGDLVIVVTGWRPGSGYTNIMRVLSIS

The target in another assay is PKR K410E (Homo sapiens, UniProt P30613, K410E). In words: PKR mutant assay (AC50), PKR K410E. It counts as biochemical. The conditions noted are these: PKR K410E mutant enzyme. In a few lines:
as §1

For assay [1], the target named is T1, wild type PKR (Homo sapiens, UniProt P30613). In words: PKR mutant assay (AC50), wild type PKR. It counts as biochemical. Particulars: wild type PKR enzyme; read-out: PKR WT AC50. In a few lines: as §1
T1 sequence (P30613 whole entry): as the sequence (P30613 whole entry R510Q) above, with Q510R counted along it
The target in assay [2] is T1, wild type PKR. The experiment in a line: Cell based ATP assay in purified red blood cells. Also noted: endogenous in cells; host or cells: purified red blood cells from blood of healthy volunteers. Particulars: RBCs, overnight at 37° C., ATP levels by Cell-Titer-Glo. In a few lines: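 Leukocyte-depleted red cells from healthy volunteers were held in AGAM (PBS, glucose, adenine, mannitol) at 1×10^7 cells/mL. They were treated with 1:4 serial compound dilutions at 0.1% DMSO final and incubated overnight at 37 °C in humidity. ATP was then quantified by CellTiter-Glo luminescence.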

Sequence of PKR K410E (P30613 whole entry K410E): as the sequence (P30613 whole entry R510Q) above, with K410E, Q510R counted along it

Turning to `Cc1ccc(Cn2ncc3c4sc(Cc5cc[nH]n5)nc4n(C)c3c2=O)nc1N`, the AC50 was less than 300 nM at PKR R510Q, less than 300 nM on PKR K410E, less than 300 nM on wild type PKR [1] and not above 1000 nM on wild type PKR [2].

Regarding `Cn1c2nc(Cc3cc[nH]n3)sc2c2cnn(Cc3nncs3)c(=O)c21`, the AC50 at PKR R510Q is less than 300 nM; at PKR K410E, less than 300 nM; at wild type PKR [1], less than 300 nM; on wild type PKR [2] it was not above 1000 nM.

Regarding `Cn1c2nc(Cc3cc[nH]n3)sc2c2cnn(Cc3[nH]ncc3Cl)c(=O)c21`, the AC50 is less than 300 nM on PKR R510Q, less than 300 nM on PKR K410E, less than 300 nM at wild type PKR [1] and not above 1000 nM on wild type PKR [2].

On to `Cn1c2nc(Cc3cc[nH]n3)sc2c2cnn(Cc3ncns3)c(=O)c21`, for which the AC50 is less than 300 nM on PKR R510Q, less than 300 nM on PKR K410E, less than 300 nM at wild type PKR [1] and not above 1000 nM on wild type PKR [2].

As for `Cn1cc(C(=O)O)c(Cn2ncc3c4sc(Cc5cc[nH]n5)nc4n(C)c3c2=O)n1`, the AC50 at PKR R510Q was more than 800 nM; on PKR K410E it was more than 800 nM; on wild type PKR [1], more than 800 nM; at wild type PKR [2], more than 1000 nM.

With `COc1ccc(Cn2ncc3c4sc(Cc5cc[nH]n5)nc4n(C)c3c2=O)cn1`, the concentration at half-maximal activity (AC50) on PKR R510Q is less than 300 nM; on PKR K410E it was less than 300 nM; on wild type PKR [1] it was less than 300 nM; at wild type PKR [2], not above 1000 nM.

`Cn1c2nc(C(=O)c3cc[nH]n3)sc2c2cnn(Cc3cccc(N)n3)c(=O)c21`: the AC50 at PKR R510Q is less than 300 nM; on PKR K410E, less than 300 nM; at wild type PKR [1] it was 301 to 800 nM; at wild type PKR [2], not above 1000 nM.

In the case of `Cn1c2nc(Cc3cc[nH]n3)sc2c2cnn(Cc3ccc(F)c(N)n3)c(=O)c21`, the AC50 on PKR R510Q is less than 300 nM; at PKR K410E, less than 300 nM; on wild type PKR [1], less than 300 nM; at wild type PKR [2], not above 1000 nM.

For `CC(=O)Nc1ccc(F)c(Cn2ncc3c4sc(Cn5ccnc5)nc4n(C)c3c2=O)c1`, the AC50 on PKR R510Q was more than 800 nM; on PKR K410E, more than 800 nM; at wild type PKR [1], more than 800 nM; at wild type PKR [2], more than 1000 nM.

As for `Cn1c2nc(Cc3nc(N)sc3F)sc2c2cnn(Cc3c[nH]nn3)c(=O)c21`, the AC50 was less than 300 nM on PKR R510Q, less than 300 nM on PKR K410E, less than 300 nM at wild type PKR [1] and not above 1000 nM at wild type PKR [2].

`CCOC(c1cscn1)c1nc2c(s1)c1cnn(Cc3c[nH]nn3)c(=O)c1n2C` (centres unmarked): the AC50 on PKR R510Q was more than 800 nM; on PKR K410E, more than 800 nM; on wild type PKR [1], more than 800 nM; on wild type PKR [2] it was more than 1000 nM.

Consider `Cn1c2nc(Cc3n[nH]cc3F)sc2c2cnn(Cc3ccc[nH]c3=O)c(=O)c21`, for which the AC50 is less than 300 nM at PKR R510Q, less than 300 nM at PKR K410E, less than 300 nM on wild type PKR [1] and not above 1000 nM on wild type PKR [2].

`Cn1c2nc(Cc3n[nH]cc3F)sc2c2cnn(Cc3nc(N)ccc3F)c(=O)c21`: the AC50 is less than 300 nM on PKR R510Q, less than 300 nM at PKR K410E, less than 300 nM at wild type PKR [1] and not above 1000 nM on wild type PKR [2].

Turning to `Cn1c2nc(Cc3ncsc3Cl)sc2c2cnn(Cc3c[nH]nn3)c(=O)c21`, the AC50 at PKR R510Q was less than 300 nM; on PKR K410E, less than 300 nM; at wild type PKR [1] it was less than 300 nM; at wild type PKR [2], not above 1000 nM.

For the molecule `Cn1c2nc(Cc3c[nH]nn3)sc2c2cnn(Cc3csc(N)n3)c(=O)c21`, the AC50 on PKR R510Q is less than 300 nM; on PKR K410E, less than 300 nM; at wild type PKR [1], less than 300 nM; on wild type PKR [2], not above 1000 nM.

`Cn1c2nc(Cc3cc[nH]n3)sc2c2cnn(Cc3coc(N)n3)c(=O)c21`: the AC50 on PKR R510Q is less than 300 nM; at PKR K410E, less than 300 nM; at wild type PKR [1] it was less than 300 nM; at wild type PKR [2], not above 1000 nM.

As for `Cn1c2nc(Cc3cc[nH]n3)sc2c2cnn(Cc3n[nH]cc3O)c(=O)c21`, the AC50 on PKR R510Q was less than 300 nM; on PKR K410E, less than 300 nM; on wild type PKR [1], less than 300 nM; on wild type PKR [2], not above 1000 nM.

With `Cn1c2nc(Cc3cc[nH]n3)sc2c2cnn(Cc3csc(CO)n3)c(=O)c21`, the AC50 is less than 300 nM on PKR R510Q, less than 300 nM on PKR K410E, less than 300 nM at wild type PKR [1] and not above 1000 nM at wild type PKR [2].

As to `CN(C)c1cccc(Cc2nc3c(s2)c2cnn(Cc4cc[nH]n4)c(=O)c2n3C)n1`, the half-maximal activity concentration (AC50) on PKR R510Q was less than 300 nM; on PKR K410E it was less than 300 nM; at wild type PKR [1], less than 300 nM; on wild type PKR [2], not above 1000 nM.

Take `Cn1c2nc(Cc3cc[nH]n3)sc2c2cnn(Cc3cc[nH]c(=O)c3)c(=O)c21`: the AC50 on PKR R510Q is 301 to 800 nM; at PKR K410E, less than 300 nM; on wild type PKR [1] it was less than 300 nM; at wild type PKR [2], not above 1000 nM.

On to `Cn1c2nc(Cc3cc[nH]n3)sc2c2cnn(Cc3cc(=O)[nH][nH]3)c(=O)c21`, for which the concentration at half-maximal activity (AC50) at PKR R510Q is less than 300 nM; at PKR K410E, 301 to 800 nM; at wild type PKR [1], 301 to 800 nM; on wild type PKR [2] it was more than 1000 nM.

As for `Cn1cc(C(F)(F)F)c(Cn2ncc3c4sc(Cc5cc[nH]n5)nc4n(C)c3c2=O)n1`, the half-maximal activity concentration (AC50) on PKR R510Q was less than 300 nM; at PKR K410E it was less than 300 nM; on wild type PKR [1], less than 300 nM; on wild type PKR [2], not above 1000 nM.

For the molecule `Cn1c2nc(Cc3c[nH]nn3)sc2c2cnn(Cc3cccc(N)n3)c(=O)c21`, the AC50 at PKR R510Q was less than 300 nM; on PKR K410E it was less than 300 nM; on wild type PKR [1], less than 300 nM; at wild type PKR [2] it was not above 1000 nM.

As to `Cn1c2nc(Cc3ccn[nH]3)sc2c2cnn(Cc3cn[nH]c3)c(=O)c21`, the AC50 is less than 300 nM on PKR R510Q, less than 300 nM at PKR K410E, less than 300 nM at wild type PKR [1] and not above 1000 nM at wild type PKR [2].

In the case of `Cn1ccc(Cn2ncc3c4sc(Cc5csc(CO)n5)nc4n(C)c3c2=O)n1`, the AC50 on PKR R510Q was less than 300 nM; on PKR K410E, less than 300 nM; at wild type PKR [1], less than 300 nM; at wild type PKR [2] it was not above 1000 nM.

As for `Cn1c2nc(Cc3cc[nH]n3)sc2c2cnn(Cc3n[nH]cc3F)c(=O)c21`, the AC50 at PKR R510Q was less than 300 nM; on PKR K410E, less than 300 nM; on wild type PKR [1] it was less than 300 nM; on wild type PKR [2], not above 1000 nM.

On to `Cc1scnc1Cc1nc2c(s1)c1cnn(Cc3ccn[nH]3)c(=O)c1n2C`, for which the AC50 on PKR R510Q was less than 300 nM; at PKR K410E, less than 300 nM; on wild type PKR [1], less than 300 nM; at wild type PKR [2] it was not above 1000 nM.

Regarding `Cn1c2nc(Cc3cc[nH]n3)sc2c2cnn(Cc3cc(Cl)[nH]n3)c(=O)c21`, the AC50 on PKR R510Q is less than 300 nM; at PKR K410E, less than 300 nM; at wild type PKR [1] it was less than 300 nM; at wild type PKR [2] it was not above 1000 nM.

For `Cn1c2nc(Cn3cncn3)sc2c2cnn(Cc3ccnc(N)n3)c(=O)c21`, the half-maximal activity concentration (AC50) at PKR R510Q, at PKR K410E and at wild type PKR [1] was more than 800 nM in each case. For the same molecule, at wild type PKR [2], the “Cell based ATP assay AC50” value is recorded as “No Fit”.

As for `Cn1c2nc(Cc3cc[nH]n3)sc2c2cnn(Cc3ccc(C#N)cn3)c(=O)c21`, the AC50 is less than 300 nM at PKR R510Q, less than 300 nM on PKR K410E, 301 to 800 nM at wild type PKR [1] and not above 1000 nM at wild type PKR [2].

As to `Cn1cc(Cn2ncc3c4sc(Cc5cc[nH]n5)nc4n(C)c3c2=O)nn1`, the AC50 on PKR R510Q is less than 300 nM; at PKR K410E, less than 300 nM; at wild type PKR [1], less than 300 nM; at wild type PKR [2], not above 1000 nM.

Regarding `Cn1c2nc(Cc3cc[nH]n3)sc2c2cnn(Cc3ncc(N)s3)c(=O)c21`, the AC50 on PKR R510Q was less than 300 nM; on PKR K410E, less than 300 nM; at wild type PKR [1], less than 300 nM; on wild type PKR [2], not above 1000 nM.

The values are drawn from US11040036B2, “Pyruvate kinase activators for use in treating blood disorders” (Agios Pharmaceuticals, Inc., priority 2017, dated 2021).
